# Active and inactive are the calls of the source. The calls are words filed in the database; no cut-off is given here.
# Key:
# [1] = target: Histone deacetylase; experiment: Inhibition of HDAC in human HeLa cells using Fluor deLys as substrate assessed as deacetylation of substrate by fluorescence assay; assay type: cell-based
# [2] = system: A549; experiment: Cytotoxicity against human A549 cells assessed as reduction in cell growth inhibition after 96 hrs by MTT assay; assay type: functional; details: A549, 96 h
# [3] = system: MCF7; experiment: Cytotoxicity against human MCF7 cells assessed as reduction in cell growth inhibition after 96 hrs by MTT assay; assay type: functional; details: MCF7, 96 h
# [4] = system: PC-3; experiment: Cytotoxicity against human PC3 cells assessed as reduction in cell growth inhibition after 96 hrs by MTT assay; assay type: functional; details: PC-3, 96 h
# [5] = system: HL-60; experiment: Cytotoxicity against human HL60 cells assessed as reduction in cell growth inhibition after 72 hrs by trypan blue-staining based hemocytometric analysis; assay type: functional; details: HL-60, 72 h
# [6] = target: Histone deacetylase (Homo sapiens) (UniProt Q13547+O15379+Q9UBN7+Q92769+Q9UQL6+Q8WUI4+Q9BY41+Q96DB2+P56524+Q9UKV0+Q969S8); experiment: Inhibition of HDAC in human HL60 cells assessed as upregulation of H3 acetylation levels at 2 uM after 18 hrs by SDS-PAGE analysis; assay type: cell-based
SMILES,IC50 [1],GI50 [2],GI50 [3],GI50 [4],GI50 [5],H3 acetylation upregulation (active/not active) [6]
O=C(NCCSSCCNC(=O)/C(Cc1cccc(Cl)c1)=N/O)/C(Cc1cccc(Cl)c1)=N/O,0.21 µM,5.42 µM,3.51 µM,5.19 µM,0.57 µM,–
CO/N=C(\Cc1cccc(Cl)c1)C(=O)NCCSSCCNC(=O)/C(Cc1cccc(Cl)c1)=N/OC,4.5 µM,32 µM,14.3 µM,23.1 µM,6.55 µM,–
CO/N=C(\Cc1ccc(OC)cc1)C(=O)NCCSSCCNC(=O)/C(Cc1ccc(OC)cc1)=N/OC,3.15 µM,38.3 µM,16.4 µM,26.8 µM,5.18 µM,–
COc1ccc(-c2cc(C(=O)NCCSSCCNC(=O)c3cc(-c4ccc(OC)cc4)[nH]n3)n[nH]2)cc1,2.77 µM,–,–,26.6 µM,6.45 µM,–
COc1ccc(-c2cc(C(=O)NCCSSCCNC(=O)c3cc(-c4ccc(OC)c(Br)c4)on3)no2)cc1Br,4.65 µM,–,–,39 µM,13.3 µM,–
Cc1ccc(C/C(=N\O)C(=O)NCCSSCCNC(=O)/C(Cc2ccc(C)cc2)=N/O)cc1,0.26 µM,8.35 µM,4.3 µM,6.43 µM,0.74 µM,Active
O=C(NCCSSCCNC(=O)/C(Cc1ccc(O)c(Br)c1)=N/O)/C(Cc1ccc(O)c(Br)c1)=N/O [PSAMMAPLIN A],0.05 µM,4.5 µM,2.26 µM,3.52 µM,0.29 µM,Active
O=C(NCCSSCCNC(=O)/C(Cc1ccc(O)cc1)=N/O)/C(Cc1ccc(O)cc1)=N/O,0.12 µM,6.54 µM,4.62 µM,5.33 µM,0.62 µM,–
O=C(NCCSSCCNC(=O)/C(Cc1ccc(Cl)cc1Cl)=N/O)/C(Cc1ccc(Cl)cc1Cl)=N/O,0.28 µM,6.79 µM,4.98 µM,4.61 µM,0.87 µM,–
COc1cc(C/C(=N\O)C(=O)NCCSSCCNC(=O)/C(Cc2ccc(O)c(OC)c2)=N/O)ccc1O,0.04 µM,4.84 µM,2.47 µM,3.41 µM,0.28 µM,Active
O=C(NCCSSCCNC(=O)/C(Cc1ccc2c(c1)OCO2)=N/O)/C(Cc1ccc2c(c1)OCO2)=N/O,0.13 µM,4.78 µM,3.77 µM,2.4 µM,0.67 µM,Active
O=C(NCCSSCCNC(=O)/C(Cc1cccc(C(F)(F)F)c1)=N/O)/C(Cc1cccc(C(F)(F)F)c1)=N/O,0.27 µM,4.48 µM,3.48 µM,6.78 µM,0.52 µM,–
CC(C)c1ccc(C/C(=N\O)C(=O)NCCSSCCNC(=O)/C(Cc2ccc(C(C)C)cc2)=N/O)cc1,0.21 µM,4.61 µM,3.91 µM,2.67 µM,0.5 µM,–
CO/N=C(\Cc1ccc(C)cc1)C(=O)NCCSSCCNC(=O)/C(Cc1ccc(C)cc1)=N/OC,7.65 µM,> 50 µM,> 50 µM,> 50 µM,11.9 µM,inactive
CO/N=C(\Cc1ccc(Cl)cc1Cl)C(=O)NCCSSCCNC(=O)/C(Cc1ccc(Cl)cc1Cl)=N/OC,8.59 µM,47.1 µM,16.5 µM,> 50 µM,8.64 µM,–
COc1ccc(C/C(=N\O)C(=O)NCCSSCCNC(=O)/C(Cc2ccc(OC)c(O)c2)=N/O)cc1O,0.03 µM,4.74 µM,2.7 µM,3.27 µM,0.23 µM,Active
COc1ccc(-c2cc(C(=O)NCCSSCCNC(=O)c3cc(-c4ccc(OC)cc4)on3)no2)cc1,8.31 µM,–,–,> 50 µM,18.3 µM,–
COc1ccc(-c2cc(C(=O)NCCSSCCNC(=O)c3cc(-c4ccc(OC)c(Br)c4)[nH]n3)n[nH]2)cc1Br,1.86 µM,–,–,16.9 µM,5.52 µM,–
COc1ccc(C/C(=N\O)C(=O)NCCSSCCNC(=O)/C(Cc2ccc(OC)cc2)=N/O)cc1,0.12 µM,6.85 µM,2.68 µM,5.5 µM,0.78 µM,–
O=C(NCCSSCCNC(=O)c1cc(-c2ccc(O)cc2)on1)c1cc(-c2ccc(O)cc2)on1,3.14 µM,–,–,31.7 µM,11.6 µM,–
O=C(NCCSSCCNC(=O)c1cc(-c2ccc(O)c(Br)c2)[nH]n1)c1cc(-c2ccc(O)c(Br)c2)[nH]n1,0.68 µM,–,–,17.1 µM,6.14 µM,–
O=C(NCCSSCCNC(=O)c1cc(-c2ccc(O)cc2)[nH]n1)c1cc(-c2ccc(O)cc2)[nH]n1,1.81 µM,–,–,19.8 µM,4.11 µM,–

# From ChEMBL document CHEMBL4425173, “Synthesis, biological evaluation and molecular modeling studies of psammaplin A and its analogs as potent histone deacetylases inhibitors and cytotoxic agents” (Bioorg Med Chem Lett, 2016)
